Reference: patent publication US8192962B2, “Processes for detecting toxic substances” (Daikin Industries, Ltd., priority 2001, dated 2012)

System: Transport facilitation protein genes
Test: DNA chip mRNA expression in yeast, transport facilitation protein genes (Table 5)
Type: cell-based, Saccharomyces cerevisiae S288C
Outline: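 Ratios compare mRNA levels in stressed and control S. cerevisiae. Each toxicant was applied for two hours to log-phase cultures at 25° C. at a sub-lethal, growth-inhibiting level; fluorescent cDNA (Cy3- or Cy5-dUTP) was hybridized to a genome-wide yeast chip for over 12 h at 65° C.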

[Cl][Pb][Cl] [(4), PbCl2] was tested, and the “The level of expressed mRNA in the presence of chemical substance/The level of expressed mRNA in the absence of chemical substance” value (yeast gene YBL030C) was 0.9, the “The level of expressed mRNA in the presence of chemical substance/The level of expressed mRNA in the absence of chemical substance” value (yeast gene YBL099W) was 1.4 and the “The level of expressed mRNA in the presence of chemical substance/The level of expressed mRNA in the absence of chemical substance” value (yeast gene YBR052C) was 2.6. For the same molecule, the “The level of expressed mRNA in the presence of chemical substance/The level of expressed mRNA in the absence of chemical substance” value (yeast gene YBR068C) was 2.5, the “The level of expressed mRNA in the presence of chemical substance/The level of expressed mRNA in the absence of chemical substance” value (yeast gene YBR127C) was 1.1 and the “The level of expressed mRNA in the presence of chemical substance/The level of expressed mRNA in the absence of chemical substance” value (yeast gene YBR132C) was 1.8. For the same molecule, the “The level of expressed mRNA in the presence of chemical substance/The level of expressed mRNA in the absence of chemical substance” value (yeast gene YBR207W) was 2.0, the “The level of expressed mRNA in the presence of chemical substance/The level of expressed mRNA in the absence of chemical substance” value (yeast gene YBR293W) was 1.8 and the “The level of expressed mRNA in the presence of chemical substance/The level of expressed mRNA in the absence of chemical substance” value (yeast gene YBR294W) was 2.6. For the same molecule, the “The level of expressed mRNA in the presence of chemical substance/The level of expressed mRNA in the absence of chemical substance” value (yeast gene YBR295W) was 1.1, the “The level of expressed mRNA in the presence of chemical substance/The level of expressed mRNA in the absence of chemical substance” value (yeast gene YBR298C) was 2.3 and the “The level of expressed mRNA in the presence of chemical substance/The level of expressed mRNA in the absence of chemical substance” value (yeast gene YCL025C) was 1.7. For the same molecule, the “The level of expressed mRNA in the presence of chemical substance/The level of expressed mRNA in the absence of chemical substance” value (yeast gene YCL038C) was 1.6, the “The level of expressed mRNA in the presence of chemical substance/The level of expressed mRNA in the absence of chemical substance” value (yeast gene YCR037C) was 0.8 and the “The level of expressed mRNA in the presence of chemical substance/The level of expressed mRNA in the absence of chemical substance” value (yeast gene YCR098C) was 2.0. The “The level of expressed mRNA in the presence of chemical substance/The level of expressed mRNA in the absence of chemical substance” value (yeast gene YDL128W) was 1.0, the “The level of expressed mRNA in the presence of chemical substance/The level of expressed mRNA in the absence of chemical substance” value (yeast gene YDL198C) was 1.4 and the “The level of expressed mRNA in the presence of chemical substance/The level of expressed mRNA in the absence of chemical substance” value (yeast gene YDL210W) was 1.1. For the same molecule, the “The level of expressed mRNA in the presence of chemical substance/The level of expressed mRNA in the absence of chemical substance” value (yeast gene YDL245C) was 2.2, the “The level of expressed mRNA in the presence of chemical substance/The level of expressed mRNA in the absence of chemical substance” value (yeast gene YDR038C) was 0.9 and the “The level of expressed mRNA in the presence of chemical substance/The level of expressed mRNA in the absence of chemical substance” value (yeast gene YDR039C) was 0.9. For the same molecule, the “The level of expressed mRNA in the presence of chemical substance/The level of expressed mRNA in the absence of chemical substance” value (yeast gene YDR086C) was 1.4, the “The level of expressed mRNA in the presence of chemical substance/The level of expressed mRNA in the absence of chemical substance” value (yeast gene YDR270W) was 1.3 and the “The level of expressed mRNA in the presence of chemical substance/The level of expressed mRNA in the absence of chemical substance” value (yeast gene YDR298C) was 1.3. The “The level of expressed mRNA in the presence of chemical substance/The level of expressed mRNA in the absence of chemical substance” value (yeast gene YDR342C) was 5.7, the “The level of expressed mRNA in the presence of chemical substance/The level of expressed mRNA in the absence of chemical substance” value (yeast gene YDR343C) was 4.6 and the “The level of expressed mRNA in the presence of chemical substance/The level of expressed mRNA in the absence of chemical substance” value (yeast gene YDR345C) was 2.6. The “The level of expressed mRNA in the presence of chemical substance/The level of expressed mRNA in the absence of chemical substance” value (yeast gene YDR387C) was 2.2, the “The level of expressed mRNA in the presence of chemical substance/The level of expressed mRNA in the absence of chemical substance” value (yeast gene YDR497C) was 1.3 and the “The level of expressed mRNA in the presence of chemical substance/The level of expressed mRNA in the absence of chemical substance” value (yeast gene YEL027W) was 1.1. For the same molecule, the “The level of expressed mRNA in the presence of chemical substance/The level of expressed mRNA in the absence of chemical substance” value (yeast gene YEL063C) was 1.3, the “The level of expressed mRNA in the presence of chemical substance/The level of expressed mRNA in the absence of chemical substance” value (yeast gene YEL065W) was 0.4 and the “The level of expressed mRNA in the presence of chemical substance/The level of expressed mRNA in the absence of chemical substance” value (yeast gene YER053C) was 1.7. The “The level of expressed mRNA in the presence of chemical substance/The level of expressed mRNA in the absence of chemical substance” value (yeast gene YFL011W) was 3.3, the “The level of expressed mRNA in the presence of chemical substance/The level of expressed mRNA in the absence of chemical substance” value (yeast gene YFL041W) was 1.2 and the “The level of expressed mRNA in the presence of chemical substance/The level of expressed mRNA in the absence of chemical substance” value (yeast gene YFL050C) was 2.2. The “The level of expressed mRNA in the presence of chemical substance/The level of expressed mRNA in the absence of chemical substance” value (yeast gene YFL054C) was 2.2, the “The level of expressed mRNA in the presence of chemical substance/The level of expressed mRNA in the absence of chemical substance” value (yeast gene YGL006W) was 2.6 and the “The level of expressed mRNA in the presence of chemical substance/The level of expressed mRNA in the absence of chemical substance” value (yeast gene YGL008C) was 0.9. For the same molecule, the “The level of expressed mRNA in the presence of chemical substance/The level of expressed mRNA in the absence of chemical substance” value (yeast gene YGL104C) was 1.8, the “The level of expressed mRNA in the presence of chemical substance/The level of expressed mRNA in the absence of chemical substance” value (yeast gene YGL167C) was 1.3 and the “The level of expressed mRNA in the presence of chemical substance/The level of expressed mRNA in the absence of chemical substance” value (yeast gene YGL255W) was 0.8. The “The level of expressed mRNA in the presence of chemical substance/The level of expressed mRNA in the absence of chemical substance” value (yeast gene YGR055W) was 0.7, the “The level of expressed mRNA in the presence of chemical substance/The level of expressed mRNA in the absence of chemical substance” value (yeast gene YGR065C) was 1.1 and the “The level of expressed mRNA in the presence of chemical substance/The level of expressed mRNA in the absence of chemical substance” value (yeast gene YGR082W) was 1.0. The “The level of expressed mRNA in the presence of chemical substance/The level of expressed mRNA in the absence of chemical substance” value (yeast gene YGR096W) was 4.6, the “The level of expressed mRNA in the presence of chemical substance/The level of expressed mRNA in the absence of chemical substance” value (yeast gene YGR138C) was 1.2 and the “The level of expressed mRNA in the presence of chemical substance/The level of expressed mRNA in the absence of chemical substance” value (yeast gene YGR191W) was 1.5. The “The level of expressed mRNA in the presence of chemical substance/The level of expressed mRNA in the absence of chemical substance” value (yeast gene YGR197C) was 1.0 and the “The level of expressed mRNA in the presence of chemical substance/The level of expressed mRNA in the absence of chemical substance” value (yeast gene YGR224W) was 1.2.
